Test results taken from patent EP4722207A1, “OXOISOINDOLINYL-SUBSTITUTED TETRAHYDROPYRIMIDINEDIONE DERIVATIVE AND USE THEREOF” (Gluetacs Therapeutics (Shanghai) Co., Ltd., priority 2023, dated 2024).

How the values were obtained:
WEE1 = target: T1, WEE1 (Homo sapiens, UniProt P30291+Q96SW2); assay: Western-blot assay, substrate protein degradation in hPBMCs: WEE1; format: cell-based; conditions: for WEE1 substrate protein remaining %: compounds at 50 nM and 500 nM, 24 hours; for substrate protein remaining % WEE1: 24 hours of compound treatment, 50 nM and 500 nM
T1 construct: effects of the compounds of the present disclosure on the expression of target proteins in cells; endogenous in cells; host or cells: human PBMCs (hPBMCs)

IKZF1 = target: T2, IKZF1 (Homo sapiens, UniProt Q13422+Q96SW2); assay: Western-blot assay, substrate protein degradation in hPBMCs: IKZF1; format: cell-based; conditions: for IKZF1 substrate protein remaining %: compounds at 50 nM and 500 nM, 24 hours; for substrate protein remaining % IKZF1: 24 hours of compound treatment, 50 nM and 500 nM
T2 construct: effects of the compounds of the present disclosure on the expression of target proteins in cells; endogenous in cells; host or cells: human PBMCs (hPBMCs)

IKZF2 = target: T3, IKZF2 (Homo sapiens, UniProt Q96SW2+Q9UKS7); assay: Western-blot assay, substrate protein degradation in hPBMCs: IKZF2; format: cell-based; conditions: for IKZF2 substrate protein remaining %: compounds at 50 nM and 500 nM, 24 hours; for substrate protein remaining % IKZF2: 24 hours of compound treatment, 50 nM and 500 nM
T3 construct: effects of the compounds of the present disclosure on the expression of target proteins in cells; endogenous in cells; host or cells: human PBMCs (hPBMCs)

IKZF3 = target: T4, IKZF3 (Homo sapiens, UniProt Q96SW2+Q9UKT9); assay: Western-blot assay, substrate protein degradation in hPBMCs: IKZF3; format: cell-based; conditions: for IKZF3 substrate protein remaining %: compounds at 50 nM and 500 nM, 24 hours; for substrate protein remaining % IKZF3: 24 hours of compound treatment, 50 nM and 500 nM
T4 construct: effects of the compounds of the present disclosure on the expression of target proteins in cells; endogenous in cells; host or cells: human PBMCs (hPBMCs)

CK1α = target: T5, CK1α (Homo sapiens, UniProt P48729+Q96SW2); assay: Western-blot assay, substrate protein degradation in hPBMCs: CK1α; format: cell-based; conditions: for CK1α substrate protein remaining %: compounds at 50 nM and 500 nM, 24 hours; for substrate protein remaining % CK1α: 24 hours of compound treatment, 50 nM and 500 nM
T5 construct: effects of the compounds of the present disclosure on the expression of target proteins in cells; endogenous in cells; host or cells: human PBMCs (hPBMCs)

GSPT1 = target: T6, GSPT1 (Homo sapiens, UniProt P15170+Q96SW2); assay: Western-blot assay, substrate protein degradation in hPBMCs: GSPT1; format: cell-based; conditions: for GSPT1 substrate protein remaining %: compounds at 50 nM and 500 nM, 24 hours; for substrate protein remaining % GSPT1: 24 hours of compound treatment, 50 nM and 500 nM
T6 construct: effects of the compounds of the present disclosure on the expression of target proteins in cells; endogenous in cells; host or cells: human PBMCs (hPBMCs)

MV-4-11 = assay: Cell viability assay (CellTiter-Meiluncell Luminescent), tumor cell proliferation, MV-4-11; conditions: Homo sapiens, MV4-11, 96 h; for IC50: read-out: inhibitory activity (IC50, nM) against tumor cells proliferation, MV-4-11; for inhibition at 0.01 µM: read-out: Inhibition Rate at 10 nM (%); for inhibition at 0.5 µM: read-out: Inhibition Rate at 500 nM (%)

T4 sequence (Q9UKT9 whole entry): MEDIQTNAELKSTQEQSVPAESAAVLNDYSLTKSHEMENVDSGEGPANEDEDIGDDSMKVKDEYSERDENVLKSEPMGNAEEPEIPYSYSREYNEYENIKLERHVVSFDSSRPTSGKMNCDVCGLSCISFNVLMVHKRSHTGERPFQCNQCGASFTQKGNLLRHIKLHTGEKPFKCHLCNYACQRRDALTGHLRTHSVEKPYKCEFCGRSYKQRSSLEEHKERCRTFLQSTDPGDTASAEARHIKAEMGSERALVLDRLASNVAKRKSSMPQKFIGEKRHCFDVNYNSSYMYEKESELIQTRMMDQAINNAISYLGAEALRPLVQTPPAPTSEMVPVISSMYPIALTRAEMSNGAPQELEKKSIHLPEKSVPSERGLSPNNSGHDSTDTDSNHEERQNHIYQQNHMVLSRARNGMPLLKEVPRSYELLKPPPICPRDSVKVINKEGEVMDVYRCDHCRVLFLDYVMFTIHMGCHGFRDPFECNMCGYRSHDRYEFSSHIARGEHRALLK
T4 sequence (Q96SW2 whole entry): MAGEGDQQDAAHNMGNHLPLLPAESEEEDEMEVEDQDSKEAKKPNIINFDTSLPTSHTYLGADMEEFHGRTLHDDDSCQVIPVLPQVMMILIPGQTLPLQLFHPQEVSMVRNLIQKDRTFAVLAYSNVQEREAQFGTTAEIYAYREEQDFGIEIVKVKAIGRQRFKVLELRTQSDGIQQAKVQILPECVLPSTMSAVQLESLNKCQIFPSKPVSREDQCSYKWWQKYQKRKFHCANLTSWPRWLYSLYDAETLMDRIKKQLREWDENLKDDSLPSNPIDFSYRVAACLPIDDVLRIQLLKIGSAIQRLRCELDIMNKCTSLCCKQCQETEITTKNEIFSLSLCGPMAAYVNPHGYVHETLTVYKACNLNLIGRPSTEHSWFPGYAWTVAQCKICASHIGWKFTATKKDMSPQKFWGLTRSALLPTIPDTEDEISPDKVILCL
T4 sequence (Q16531 whole entry partner): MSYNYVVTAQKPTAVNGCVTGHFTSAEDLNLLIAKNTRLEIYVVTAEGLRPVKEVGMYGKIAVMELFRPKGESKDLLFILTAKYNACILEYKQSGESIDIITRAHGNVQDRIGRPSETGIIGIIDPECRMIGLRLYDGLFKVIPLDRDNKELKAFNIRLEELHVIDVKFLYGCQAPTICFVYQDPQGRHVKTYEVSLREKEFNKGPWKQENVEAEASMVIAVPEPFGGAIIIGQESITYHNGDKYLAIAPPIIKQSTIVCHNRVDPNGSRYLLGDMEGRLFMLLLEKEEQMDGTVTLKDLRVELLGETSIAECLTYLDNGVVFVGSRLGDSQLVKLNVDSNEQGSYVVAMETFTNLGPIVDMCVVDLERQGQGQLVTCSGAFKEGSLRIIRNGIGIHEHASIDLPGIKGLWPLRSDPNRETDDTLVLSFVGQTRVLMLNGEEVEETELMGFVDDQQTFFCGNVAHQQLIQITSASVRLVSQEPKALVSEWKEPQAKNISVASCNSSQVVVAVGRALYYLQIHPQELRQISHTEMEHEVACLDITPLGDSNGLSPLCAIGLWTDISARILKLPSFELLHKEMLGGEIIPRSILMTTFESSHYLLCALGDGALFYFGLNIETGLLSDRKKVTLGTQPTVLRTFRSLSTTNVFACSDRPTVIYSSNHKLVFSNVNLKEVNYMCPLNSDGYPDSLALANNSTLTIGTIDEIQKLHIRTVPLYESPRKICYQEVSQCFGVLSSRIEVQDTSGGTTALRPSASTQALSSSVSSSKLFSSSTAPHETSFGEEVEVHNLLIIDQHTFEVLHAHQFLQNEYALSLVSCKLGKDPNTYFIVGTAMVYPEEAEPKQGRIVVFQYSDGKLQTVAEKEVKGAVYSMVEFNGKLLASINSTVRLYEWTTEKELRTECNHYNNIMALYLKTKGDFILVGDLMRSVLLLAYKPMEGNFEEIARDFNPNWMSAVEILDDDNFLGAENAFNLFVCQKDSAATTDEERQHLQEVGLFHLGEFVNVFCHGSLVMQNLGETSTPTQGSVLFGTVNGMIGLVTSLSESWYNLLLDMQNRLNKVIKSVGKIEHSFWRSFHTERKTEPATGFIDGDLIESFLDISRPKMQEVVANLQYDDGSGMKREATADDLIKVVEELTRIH
T1 sequence (P30291 whole entry): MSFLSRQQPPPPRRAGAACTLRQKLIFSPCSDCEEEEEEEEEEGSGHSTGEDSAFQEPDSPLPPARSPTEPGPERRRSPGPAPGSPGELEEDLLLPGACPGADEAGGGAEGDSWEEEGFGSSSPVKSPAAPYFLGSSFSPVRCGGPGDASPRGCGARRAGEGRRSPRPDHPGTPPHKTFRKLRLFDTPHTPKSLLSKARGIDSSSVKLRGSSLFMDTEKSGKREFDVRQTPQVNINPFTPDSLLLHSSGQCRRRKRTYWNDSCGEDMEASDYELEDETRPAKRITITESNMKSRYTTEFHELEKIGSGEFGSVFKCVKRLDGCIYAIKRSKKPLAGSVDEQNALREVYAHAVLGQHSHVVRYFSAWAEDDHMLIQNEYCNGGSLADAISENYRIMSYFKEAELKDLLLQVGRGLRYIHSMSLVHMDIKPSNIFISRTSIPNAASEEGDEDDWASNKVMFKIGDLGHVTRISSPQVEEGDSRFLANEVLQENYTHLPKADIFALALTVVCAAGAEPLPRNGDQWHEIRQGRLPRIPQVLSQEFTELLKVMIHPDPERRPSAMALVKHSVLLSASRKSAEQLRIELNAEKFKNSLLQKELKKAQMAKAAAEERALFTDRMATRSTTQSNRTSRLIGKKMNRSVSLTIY
T1 sequence (Q96SW2 whole entry): as the sequence (Q96SW2 whole entry) above
T1 sequence (Q16531 whole entry partner): as the sequence (Q16531 whole entry partner) above
T6 sequence (P15170 whole entry): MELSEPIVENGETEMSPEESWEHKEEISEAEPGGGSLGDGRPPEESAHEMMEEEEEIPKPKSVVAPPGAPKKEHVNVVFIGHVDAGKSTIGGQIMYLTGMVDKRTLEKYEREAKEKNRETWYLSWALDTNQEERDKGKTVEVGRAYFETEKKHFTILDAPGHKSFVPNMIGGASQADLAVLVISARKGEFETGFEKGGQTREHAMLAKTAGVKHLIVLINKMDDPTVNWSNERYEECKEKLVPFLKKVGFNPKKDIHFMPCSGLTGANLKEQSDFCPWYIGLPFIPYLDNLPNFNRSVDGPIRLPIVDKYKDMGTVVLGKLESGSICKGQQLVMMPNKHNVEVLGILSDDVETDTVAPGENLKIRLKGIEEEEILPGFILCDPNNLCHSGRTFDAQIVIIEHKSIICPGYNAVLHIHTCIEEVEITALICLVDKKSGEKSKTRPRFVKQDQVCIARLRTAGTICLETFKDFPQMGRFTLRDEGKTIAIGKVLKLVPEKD
T6 sequence (Q96SW2 whole entry): as the sequence (Q96SW2 whole entry) above
T6 sequence (Q16531 whole entry partner): as the sequence (Q16531 whole entry partner) above
T3 sequence (Q9UKS7 whole entry): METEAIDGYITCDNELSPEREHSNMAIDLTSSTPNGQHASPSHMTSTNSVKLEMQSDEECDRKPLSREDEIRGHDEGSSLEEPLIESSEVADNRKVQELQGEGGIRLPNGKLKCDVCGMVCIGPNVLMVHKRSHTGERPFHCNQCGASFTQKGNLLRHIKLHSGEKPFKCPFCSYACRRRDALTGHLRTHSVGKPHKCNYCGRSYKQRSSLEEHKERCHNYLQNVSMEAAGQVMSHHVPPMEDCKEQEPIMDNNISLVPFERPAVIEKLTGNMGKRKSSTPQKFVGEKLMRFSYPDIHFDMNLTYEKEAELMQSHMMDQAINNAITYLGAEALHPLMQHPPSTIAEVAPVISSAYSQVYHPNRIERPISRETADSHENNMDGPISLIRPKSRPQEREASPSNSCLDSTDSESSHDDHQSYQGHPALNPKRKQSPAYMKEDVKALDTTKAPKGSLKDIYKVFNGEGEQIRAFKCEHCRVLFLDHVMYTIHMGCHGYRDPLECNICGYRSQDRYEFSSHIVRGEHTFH
T3 sequence (Q96SW2 whole entry): as the sequence (Q96SW2 whole entry) above
T3 sequence (Q16531 whole entry partner): as the sequence (Q16531 whole entry partner) above
T2 sequence (Q13422 whole entry): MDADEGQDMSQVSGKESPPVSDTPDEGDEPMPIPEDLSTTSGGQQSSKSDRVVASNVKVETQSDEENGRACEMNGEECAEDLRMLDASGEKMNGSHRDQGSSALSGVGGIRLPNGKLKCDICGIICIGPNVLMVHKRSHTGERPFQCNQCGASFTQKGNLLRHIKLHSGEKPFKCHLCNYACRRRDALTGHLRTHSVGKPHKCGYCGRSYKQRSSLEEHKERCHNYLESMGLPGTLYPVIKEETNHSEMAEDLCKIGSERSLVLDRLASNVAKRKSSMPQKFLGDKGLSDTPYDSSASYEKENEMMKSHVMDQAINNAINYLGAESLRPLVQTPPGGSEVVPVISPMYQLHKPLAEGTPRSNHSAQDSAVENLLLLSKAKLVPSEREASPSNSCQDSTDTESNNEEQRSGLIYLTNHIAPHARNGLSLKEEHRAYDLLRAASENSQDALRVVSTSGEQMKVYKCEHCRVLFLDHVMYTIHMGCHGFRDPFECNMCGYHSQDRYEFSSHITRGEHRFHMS
T2 sequence (Q96SW2 whole entry): as the sequence (Q96SW2 whole entry) above
T2 sequence (Q16531 whole entry partner): as the sequence (Q16531 whole entry partner) above

O=C1CCN(N2Cc3cc(CN4CCN(c5ccccc5Br)CC4)ccc3C2=O)C(=O)N1 [GT-06766, 1-(5-((4-(2-bromophenyl)piperazin-1-yl)methyl)-1-oxoisoindolin-2-yl)dihydropyrimidine-2,4(1H,3H)-dione]
WEE1 substrate protein remaining % (WEE1): A ("A" is defined as 0% ≤ substrate protein remaining % ≤ 80%)
IKZF1 substrate protein remaining % (IKZF1): A ("A" is defined as 0% ≤ substrate protein remaining % ≤ 80%)
IKZF2 substrate protein remaining % (IKZF2): A ("A" is defined as 0% ≤ substrate protein remaining % ≤ 80%)
IKZF3 substrate protein remaining % (IKZF3): A ("A" is defined as 0% ≤ substrate protein remaining % ≤ 80%)
CK1α substrate protein remaining % (CK1α): A ("A" is defined as 0% ≤ substrate protein remaining % ≤ 80%)
GSPT1 substrate protein remaining % (GSPT1): A ("A" is defined as 0% ≤ substrate protein remaining % ≤ 80%)
IC50 (MV-4-11): 500 to 1000 nM

O=C1CCN(N2Cc3cc(CN4CCN(c5cc(Cl)ccc5Cl)CC4)ccc3C2=O)C(=O)N1 [GT-06773, 1-(5-((4-(2,5-dichlorophenyl)piperazin-1-yl)methyl)-1-oxoisoindolin-2-yl)dihydropyrimidine-2,4(1H,3H)-dione]
WEE1 substrate protein remaining % (WEE1): A ("A" is defined as 0% ≤ substrate protein remaining % ≤ 80%)
IKZF1 substrate protein remaining % (IKZF1): B ("B" is defined as 80%< substrate protein remaining %≤ 100%)
IKZF2 substrate protein remaining % (IKZF2): A ("A" is defined as 0% ≤ substrate protein remaining % ≤ 80%)
IKZF3 substrate protein remaining % (IKZF3): A ("A" is defined as 0% ≤ substrate protein remaining % ≤ 80%)
CK1α substrate protein remaining % (CK1α): A ("A" is defined as 0% ≤ substrate protein remaining % ≤ 80%)
GSPT1 substrate protein remaining % (GSPT1): A ("A" is defined as 0% ≤ substrate protein remaining % ≤ 80%)
IC50 (MV-4-11): 100 to 300 nM

O=C1CCN(N2Cc3cc(CN4CCN(c5cccc(F)c5F)CC4)ccc3C2=O)C(=O)N1 [GT-06777, 1-(5-((4-(2,3-difluorophenyl)piperazin-1-yl)methyl)-1-oxoisoindolin-2-yl)dihydropyrimidine-2,4(1H,3H)-dione]
WEE1 substrate protein remaining % (WEE1): A ("A" is defined as 0% ≤ substrate protein remaining % ≤ 80%)
IKZF1 substrate protein remaining % (IKZF1): B ("B" is defined as 80%< substrate protein remaining %≤ 100%)
IKZF2 substrate protein remaining % (IKZF2): A ("A" is defined as 0% ≤ substrate protein remaining % ≤ 80%)
IKZF3 substrate protein remaining % (IKZF3): B ("B" is defined as 80%< substrate protein remaining %≤ 100%)
CK1α substrate protein remaining % (CK1α): A ("A" is defined as 0% ≤ substrate protein remaining % ≤ 80%)
GSPT1 substrate protein remaining % (GSPT1): A ("A" is defined as 0% ≤ substrate protein remaining % ≤ 80%)
IC50 (MV-4-11): 300 to 500 nM

O=C1CCN(N2Cc3cc(CN4CCC(c5ccccc5)CC4)ccc3C2=O)C(=O)N1 [GT-06884, 1-(1-oxo-5-((4-phenylpiperidin-1-yl)methyl)isoindolin-2-yl)dihydropyrimidine-2,4(1H,3H)-dione]
WEE1 substrate protein remaining % (WEE1): B ("B" is defined as 80%< substrate protein remaining %≤ 100%)
IKZF1 substrate protein remaining % (IKZF1): B ("B" is defined as 80%< substrate protein remaining %≤ 100%)
IKZF2 substrate protein remaining % (IKZF2): B ("B" is defined as 80%< substrate protein remaining %≤ 100%)
IKZF3 substrate protein remaining % (IKZF3): B ("B" is defined as 80%< substrate protein remaining %≤ 100%)
CK1α substrate protein remaining % (CK1α): B ("B" is defined as 80%< substrate protein remaining %≤ 100%)
GSPT1 substrate protein remaining % (GSPT1): A ("A" is defined as 0% ≤ substrate protein remaining % ≤ 80%)
IC50 (MV-4-11): 500 to 1000 nM

O=C1CCN(N2Cc3cc(CN4CCC(c5cccc(Br)c5)CC4)ccc3C2=O)C(=O)N1 [GT-06885, 1-(5-((4-(3-bromophenyl)piperidin-1-yl)methyl)-1-oxoisoindolin-2-yl)dihydropyrimidine-2,4(1H,3H)-dione]
WEE1 substrate protein remaining % (WEE1): B ("B" is defined as 80%< substrate protein remaining %≤ 100%)
IKZF1 substrate protein remaining % (IKZF1): A ("A" is defined as 0% ≤ substrate protein remaining % ≤ 80%)
IKZF2 substrate protein remaining % (IKZF2): A ("A" is defined as 0% ≤ substrate protein remaining % ≤ 80%)
IKZF3 substrate protein remaining % (IKZF3): B ("B" is defined as 80%< substrate protein remaining %≤ 100%)
CK1α substrate protein remaining % (CK1α): B ("B" is defined as 80%< substrate protein remaining %≤ 100%)
GSPT1 substrate protein remaining % (GSPT1): A ("A" is defined as 0% ≤ substrate protein remaining % ≤ 80%)
IC50 (MV-4-11): 100 to 300 nM

O=C1CCN(N2Cc3cc(CN4CCC(c5cccc(C(F)(F)F)c5)CC4)ccc3C2=O)C(=O)N1 [GT-06892, 1-(1-oxo-5-((4-(3-(trifluoromethyl)phenyl)piperidin-1-yl)methyl)isoindolin-2-yl)dihydropyrimidine-2,4(1H,3H)-dione]
WEE1 substrate protein remaining % (WEE1): B ("B" is defined as 80%< substrate protein remaining %≤ 100%)
IKZF1 substrate protein remaining % (IKZF1): A ("A" is defined as 0% ≤ substrate protein remaining % ≤ 80%)
IKZF2 substrate protein remaining % (IKZF2): A ("A" is defined as 0% ≤ substrate protein remaining % ≤ 80%)
IKZF3 substrate protein remaining % (IKZF3): B ("B" is defined as 80%< substrate protein remaining %≤ 100%)
CK1α substrate protein remaining % (CK1α): B ("B" is defined as 80%< substrate protein remaining %≤ 100%)
GSPT1 substrate protein remaining % (GSPT1): A ("A" is defined as 0% ≤ substrate protein remaining % ≤ 80%)
IC50 (MV-4-11): 500 to 1000 nM

O=C1CCN(N2Cc3cc(CN4CCN(c5ncnc6sc(-c7ccccc7)cc56)CC4)ccc3C2=O)C(=O)N1 [GT-08064, 1-(1-oxo-5-((4-(6-phenylthieno[2,3-d]pyrimidin-4-yl)piperazin-1-yl)methyl)isoindolin-2-yl)dihydropyrimidine-2,4(1H,3H)-dione]
substrate protein remaining % WEE1 (WEE1): B (80%< substrate protein remaining %≤ 100%)
substrate protein remaining % IKZF1 (IKZF1): B (80%< substrate protein remaining %≤ 100%)
substrate protein remaining % IKZF2 (IKZF2): A (0% ≤ substrate protein remaining % ≤ 80%)
substrate protein remaining % IKZF3 (IKZF3): B (80%< substrate protein remaining %≤ 100%)
substrate protein remaining % CK1α (CK1α): B (80%< substrate protein remaining %≤ 100%)
substrate protein remaining % GSPT1 (GSPT1): B (80%< substrate protein remaining %≤ 100%)
inhibition at 0.01 µM (MV-4-11): 25 to 30%
inhibition at 0.5 µM (MV-4-11): 10 to 18%

O=C1CCN(N2Cc3cc(CN4CCN(c5ncnc6sc7c(c56)CCCC7)CC4)ccc3C2=O)C(=O)N1 [GT-08077, 1-(1-oxo-5-((4-(5,6,7,8-tetrahydrobenzo[4,5]thieno[2,3-d]pyrimidin-4-yl)piperazin-1-yl)methyl)isoindolin-2-yl)dihydropyrimidine-2,4(1H,3H)-dione]
substrate protein remaining % WEE1 (WEE1): B (80%< substrate protein remaining %≤ 100%)
substrate protein remaining % IKZF1 (IKZF1): B (80%< substrate protein remaining %≤ 100%)
substrate protein remaining % IKZF2 (IKZF2): B (80%< substrate protein remaining %≤ 100%)
substrate protein remaining % IKZF3 (IKZF3): B (80%< substrate protein remaining %≤ 100%)
substrate protein remaining % CK1α (CK1α): A (0% ≤ substrate protein remaining % ≤ 80%)
substrate protein remaining % GSPT1 (GSPT1): A (0% ≤ substrate protein remaining % ≤ 80%)
inhibition at 0.01 µM (MV-4-11): 25 to 30%
inhibition at 0.5 µM (MV-4-11): 25 to 30%

Cc1cc2c(N3CCN(Cc4ccc5c(c4)C(=O)N(N4CCC(=O)NC4=O)C5=O)CC3)ncnc2s1 [GT-08092, 2-(2,4-dioxotetrahydropyrimidin-1(2H)-yl)-5-((4-(6-methylthieno[2,3-d]pyrimidin-4-yl)piperazin-1-yl)methyl)isoindoline-1,3-dione]
substrate protein remaining % WEE1 (WEE1): A (0% ≤ substrate protein remaining % ≤ 80%)
substrate protein remaining % IKZF1 (IKZF1): B (80%< substrate protein remaining %≤ 100%)
substrate protein remaining % IKZF2 (IKZF2): B (80%< substrate protein remaining %≤ 100%)
substrate protein remaining % IKZF3 (IKZF3): B (80%< substrate protein remaining %≤ 100%)
substrate protein remaining % CK1α (CK1α): A (0% ≤ substrate protein remaining % ≤ 80%)
substrate protein remaining % GSPT1 (GSPT1): A (0% ≤ substrate protein remaining % ≤ 80%)
inhibition at 0.01 µM (MV-4-11): 10 to 18%
inhibition at 0.5 µM (MV-4-11): 30 to 40%

Cc1sc2ncnc(N3CCCN(Cc4ccc5c(c4)C(=O)N(N4CCC(=O)NC4=O)C5=O)CC3)c2c1C [GT-08095, 5-((4-(5,6-dimethylthieno[2,3-d]pyrimidin-4-yl)-1,4-diazepan-1-yl)methyl)-2-(2,4-dioxotetrahydropyrimidin-1(2H)-yl)isoindoline-1,3-dione]
substrate protein remaining % WEE1 (WEE1): A (0% ≤ substrate protein remaining % ≤ 80%)
substrate protein remaining % IKZF1 (IKZF1): B (80%< substrate protein remaining %≤ 100%)
substrate protein remaining % IKZF2 (IKZF2): B (80%< substrate protein remaining %≤ 100%)
substrate protein remaining % IKZF3 (IKZF3): B (80%< substrate protein remaining %≤ 100%)
substrate protein remaining % CK1α (CK1α): A (0% ≤ substrate protein remaining % ≤ 80%)
substrate protein remaining % GSPT1 (GSPT1): B (80%< substrate protein remaining %≤ 100%)
inhibition at 0.01 µM (MV-4-11): 25 to 30%
inhibition at 0.5 µM (MV-4-11): 18 to 25%
